Consider 8 compounds from US10053458B2, “Pyrimidine-2,4-diamine derivative and anticancer pharmaceutical composition comprising same as effective ingredient” (KOREA RESEARCH INSTITUTE OF CHEMICAL TECHNOLOGY, priority 2014, dated 2018).

Series [1] concerns BaF3 EML4-ALK WT cells. To be noted: mouse, 3 days.
For series [2], the system named is H2228. In words: Cancer cell proliferation inhibition (SRB/MTS), H2228. The conditions noted are these: read-out: H2228 GI50.
Method: (§1) Cancer cell lines used in the experiments were all human-derived cancer cell lines, specifically H2228 and H3122, which are non-small cell lung cancer cell lines.
(§2) The cancer cell proliferation inhibition was measured using the MTS assay as follows. […] Each culture medium was placed in an incubator for 4 hours, taken out and left at room temperature for 10 minutes.
Series [3] relates to H3122. The series is described as follows: Cancer cell proliferation inhibition (SRB/MTS), H3122. The conditions noted are these: read-out: H3122 GI50.
Method: as §1, §2
The test system of series [4] is BaF3 EML4-ALK WT cells. The series is described as follows: Cytotoxicity on BaF3 cell transfected with EML4-ALK WT (WST-1). To be noted: read-out: BaF3 EML4-ALK WT, IC50 of the cytotoxicity. Background: Formazan colour is commonly taken as a measure of viable cells.
For series [5], the target named is ALK wt. (Homo sapiens (Human), UniProt Q9UM73). The series is described as follows: ALK enzyme inhibitory activity (HTRF kinase assay), ALK wt. The conditions noted are these: read-out: ALK wt. IC50, enzyme level. On the technique in general: In TR-FRET formats the signal depends on donor and acceptor labels being close together.
Sequence of ALK wt. (Q9UM73 19-1620): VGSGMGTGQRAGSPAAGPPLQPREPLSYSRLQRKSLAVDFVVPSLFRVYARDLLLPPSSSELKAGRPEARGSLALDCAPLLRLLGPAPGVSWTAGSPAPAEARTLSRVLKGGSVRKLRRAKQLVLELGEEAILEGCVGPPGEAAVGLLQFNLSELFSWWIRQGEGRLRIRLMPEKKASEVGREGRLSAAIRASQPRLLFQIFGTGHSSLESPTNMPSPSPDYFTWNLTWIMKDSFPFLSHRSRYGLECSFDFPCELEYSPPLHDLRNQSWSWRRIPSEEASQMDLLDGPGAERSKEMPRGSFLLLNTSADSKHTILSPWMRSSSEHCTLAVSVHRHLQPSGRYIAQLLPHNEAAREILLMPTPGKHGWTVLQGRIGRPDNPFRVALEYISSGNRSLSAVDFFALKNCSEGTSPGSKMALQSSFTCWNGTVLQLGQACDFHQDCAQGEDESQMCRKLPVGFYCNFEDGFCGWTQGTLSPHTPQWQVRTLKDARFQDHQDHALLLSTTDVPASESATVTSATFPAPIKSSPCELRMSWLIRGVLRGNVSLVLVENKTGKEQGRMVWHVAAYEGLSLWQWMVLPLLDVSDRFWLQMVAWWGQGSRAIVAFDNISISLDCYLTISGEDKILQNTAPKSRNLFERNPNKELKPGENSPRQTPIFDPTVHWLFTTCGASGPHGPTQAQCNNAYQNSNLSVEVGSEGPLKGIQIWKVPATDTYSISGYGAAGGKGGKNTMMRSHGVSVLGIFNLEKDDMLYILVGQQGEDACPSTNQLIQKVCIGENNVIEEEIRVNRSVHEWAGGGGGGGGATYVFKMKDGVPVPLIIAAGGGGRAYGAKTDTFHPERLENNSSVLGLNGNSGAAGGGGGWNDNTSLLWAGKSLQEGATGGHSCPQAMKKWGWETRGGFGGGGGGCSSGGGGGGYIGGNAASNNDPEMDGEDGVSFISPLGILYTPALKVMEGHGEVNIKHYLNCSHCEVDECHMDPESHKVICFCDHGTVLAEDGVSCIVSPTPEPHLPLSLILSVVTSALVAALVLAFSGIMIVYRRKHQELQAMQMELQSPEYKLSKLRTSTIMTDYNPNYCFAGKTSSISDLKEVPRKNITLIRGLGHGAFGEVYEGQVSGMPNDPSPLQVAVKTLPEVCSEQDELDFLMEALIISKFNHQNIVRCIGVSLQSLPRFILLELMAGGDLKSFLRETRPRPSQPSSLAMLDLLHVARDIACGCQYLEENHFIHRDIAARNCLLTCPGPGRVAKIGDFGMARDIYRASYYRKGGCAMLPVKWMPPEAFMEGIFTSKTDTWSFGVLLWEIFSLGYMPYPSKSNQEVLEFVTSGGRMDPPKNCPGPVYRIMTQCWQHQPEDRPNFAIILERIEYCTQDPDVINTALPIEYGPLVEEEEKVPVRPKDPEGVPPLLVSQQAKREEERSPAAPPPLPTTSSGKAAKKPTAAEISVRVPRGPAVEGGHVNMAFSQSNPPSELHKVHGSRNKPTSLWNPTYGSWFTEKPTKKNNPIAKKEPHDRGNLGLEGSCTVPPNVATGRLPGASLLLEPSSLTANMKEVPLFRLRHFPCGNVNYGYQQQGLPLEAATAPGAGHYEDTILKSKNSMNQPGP
[6] abbreviates: non-small cell lung cancer cell line, 72 hours.

Read-outs that look alike come from different tables or passages of the source. Some results are limits rather than exact numbers.

What is called IC50 is the midpoint of a concentration-inhibition curve. In general, GI50 refers to the concentration giving 50% growth inhibition.

`Cc1cc(Nc2ncc(Cl)c(Nc3ccccc3S(=O)(=O)C(C)C)n2)c(OC(C)C)cc1C1CCNCC1` [Comparative Example 2, LDK-378, reference compound]: the IC50 in series [1] was 19 nM. The GI50 in series [2] (Homo sapiens, NCI-H2228, 72 h) worked out at 25 nM; in series [3] (Homo sapiens, NCI-H3122, 72 h), 23 nM.

On to `COc1cc2c(cc1Nc1ncc(Cl)c(Nc3ccccc3S(=O)(=O)C(C)C)n1)CN(CCO)CC2(C)C` [Example 93], for which the IC50 in series [4] (3 days, WST-1) is below 50 nM; in series [5], below 10 nM. For the same compound, the GI50 in series [2] (setting [6]) and in series [3] (setting [6]) was below 50 nM in each case.

Turning to `COc1cc2c(cc1Nc1ncc(Cl)c(Nc3ccccc3S(=O)(=O)C(C)C)n1)CCNC2C(=O)O` (stereo not shown) [Example 76, 6-(5-chloro-4-(2-(isopropylsulfonyl)phenylamino)pyrimidin-2-yl)amino-7-methoxy-1,2,3,4-dihydroisoquinoline-1-carboxylic acid], the IC50 in series [4] (Ba/F3 EML4-ALK, 72 h) was below 50 nM. Besides, the GI50 was below 50 nM in series [2] (Homo sapiens, NCI-H2228, 72 h) and below 50 nM in series [3] (Homo sapiens, NCI-H3122, 72 h).

As for `COc1cc2c(cc1Nc1ncc(Cl)c(Nc3ccccc3S(=O)(=O)C(C)C)n1)CC1(CC1)NC2C` (stereo not shown) [Example 30, 5-chloro-N4-(2-(isopropylsulfonyl)phenyl)-N2-(7-methoxy-1methyl-1,4-dihydro-2H-spiro[cyclopropane-1,3-isoquinoline]-6-yl)pyrimidine-2,4-diamine], in series [4] (Ba/F3 EML4-ALK, 72 h), the half-inhibitory concentration (IC50) amounted to 5 nM. The 50% growth inhibitory concentration (GI50) in series [2] (Homo sapiens, NCI-H2228, 72 h) is below 50 nM; in series [3] (Homo sapiens, NCI-H3122, 72 h), below 50 nM.

Take `CCC(C)Oc1cc2c(cc1Nc1ncc(Cl)c(Nc3ccccc3S(=O)(=O)C(C)C)n1)CCN(C(=O)C(F)(F)F)C2` (stereo not shown) [Example 21]: the IC50 in series [4] (Ba/F3 EML4-ALK, 72 h) was below 50 nM. Moreover, the 50% growth inhibitory concentration (GI50) in series [2] (Homo sapiens, NCI-H2228, 72 h) was below 50 nM; in series [3] (Homo sapiens, NCI-H3122, 72 h), below 50 nM.

As for `COc1cc2c(cc1Nc1ncc(Cl)c(Nc3ccccc3S(=O)(=O)C(C)C)n1)CCCNC2(C)C` [Example 104, 5-chloro-N4-(2-(isopropylsulfonyl)phenyl)-N2-(8-methoxy-1,1-dimethyl-2,3,4,5-tetrahydro-1H-benzo[c]azepin-7-yl)pyrimidine-2,4-diamine], in series [4] (Ba/F3 EML4-ALK, 72 h), the IC50 was below 50 nM. The GI50 in series [2] (Homo sapiens, NCI-H2228, 72 h) is below 50 nM; in series [3] (Homo sapiens, NCI-H3122, 72 h) it was below 50 nM.

Consider `COc1cc2c(c(Cl)c1Nc1ncc(Cl)c(Nc3ccccc3S(=O)(=O)C(C)C)n1)CCNC2(C)C` [Example 88, 5-chloro-N4-(2-(isopropylsulfonyl)phenyl)-N2-(5-chloro-7-methoxy-1,1-dimethyl-1,2,3,4-tetrahydroisoquinolin-6-yl)pyrimidine-2,4-diamine], for which, in series [4] (Ba/F3 EML4-ALK, 72 h), the concentration for half-maximal inhibition (IC50) is below 50 nM. For the same compound, the GI50 in series [2] (Homo sapiens, NCI-H2228, 72 h) is below 50 nM; in series [3] (Homo sapiens, NCI-H3122, 72 h) it was below 50 nM.

For `COc1cc2c(cc1Nc1ncc(Cl)c(Nc3ccccc3S(=O)(=O)C(C)C)n1)CCN(C(=O)CO)C2(C)C` [Example 78, 1-6-(5-chloro-4-(2-(isopropylsulfonyl)phenylamino)pyrimidin-2-yl)amino-7-methoxy-1,1-dimethyl-3,4-dihydroisoquinolin-2(1H)-yl-2-hydroxyethane-1-one], in series [4] (Ba/F3 EML4-ALK, 72 h), the IC50 was below 50 nM. Besides, the concentration for 50% growth inhibition (GI50) is below 50 nM in series [2] (Homo sapiens, NCI-H2228, 72 h) and below 50 nM in series [3] (Homo sapiens, NCI-H3122, 72 h).
